SMILES strings stand for the structures.

Consider 18 molecules from EP4722219A1 (Gan & Lee Pharmaceuticals Co., Ltd., priority 2023, dated 2024).

For the experiment, the target named is T1, AR protein (Homo sapiens, UniProt P10275).
T1 construct: host or cells: VCaP
T1 sequence (P10275 1-920): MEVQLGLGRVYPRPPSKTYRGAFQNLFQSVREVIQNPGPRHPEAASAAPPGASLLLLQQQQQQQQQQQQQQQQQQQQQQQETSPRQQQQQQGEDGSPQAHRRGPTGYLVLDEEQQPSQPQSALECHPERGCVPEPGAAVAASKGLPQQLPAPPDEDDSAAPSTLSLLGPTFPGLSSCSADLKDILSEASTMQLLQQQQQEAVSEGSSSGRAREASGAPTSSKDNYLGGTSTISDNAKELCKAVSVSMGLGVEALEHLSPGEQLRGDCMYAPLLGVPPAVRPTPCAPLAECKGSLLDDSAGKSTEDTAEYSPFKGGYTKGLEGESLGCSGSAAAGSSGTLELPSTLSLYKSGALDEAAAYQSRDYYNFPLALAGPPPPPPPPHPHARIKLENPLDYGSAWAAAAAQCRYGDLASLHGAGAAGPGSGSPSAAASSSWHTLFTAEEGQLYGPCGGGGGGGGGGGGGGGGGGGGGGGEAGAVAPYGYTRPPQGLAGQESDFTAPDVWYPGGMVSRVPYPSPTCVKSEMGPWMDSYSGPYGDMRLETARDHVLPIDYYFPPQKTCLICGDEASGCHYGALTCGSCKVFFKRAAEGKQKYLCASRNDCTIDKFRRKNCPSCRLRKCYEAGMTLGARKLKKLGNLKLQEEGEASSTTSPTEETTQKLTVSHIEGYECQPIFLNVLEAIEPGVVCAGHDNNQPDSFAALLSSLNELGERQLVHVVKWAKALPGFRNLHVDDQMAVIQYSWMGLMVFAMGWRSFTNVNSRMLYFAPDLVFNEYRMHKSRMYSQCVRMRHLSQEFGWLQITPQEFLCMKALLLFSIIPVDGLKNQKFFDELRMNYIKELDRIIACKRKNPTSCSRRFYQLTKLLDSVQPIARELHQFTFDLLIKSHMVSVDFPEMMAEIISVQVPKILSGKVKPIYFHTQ
The experiment can be described thus: AR protein degradation in VCaP cells (Western blot). The conditions noted are these: 8h. It counts as cell-based. In short, it runs like this:
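AR-positive VCaP human prostate cancer cells grown in DMEM with 10% FBS were plated in six-well plates at 3×10^5 cells/well and incubated overnight. Compounds were then added at 1 µL/well alongside a solvent control and incubated for 8h. Lysates in RIPA buffer with protease inhibitor were quantified by BCA and run by SDS-PAGE. AR was detected by Western blot, and degradation was calculated from band grayscale normalized to GAPDH.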

`COc1cc(O[C@H]2C(C)(C)[C@H](NC(=O)c3ccc(N4CCC(CN5CCN6c7ccc(C(=O)N[C@H]8CCC(=O)NC8=O)cc7OC[C@@H]6C5)CC4)cc3)C2(C)C)ccc1C#N` [A-P-67]: the “Degradation rate of AR protein in VCaP cells” value (“Degradation rate of AR protein” below) is 20% (0.5 nM) and 70% (5 nM).

As to `C[C@H]1CC2(CCN(c3ccc(C(=O)N4CCC(CN5CCN6c7ccc(C(=O)N[C@H]8CCC(=O)NC8=O)cc7OC[C@H]6C5)CC4)cc3)CC2)CN1c1ccc(C#N)c(Cl)c1` [A-P-68], the “Degradation rate of AR protein” value (0.5 nM) was 5% and the “Degradation rate of AR protein” value (5 nM) amounted to 33%.

In the case of `N#Cc1ccc(O[C@H]2CC[C@H](NC(=O)c3ccc(N4CCC(N5CCC6(CC5)CCC5(CC6)COc6c5ccc5c6CN(C6CCC(=O)NC6=O)C5=O)CC4)nn3)CC2)cc1Cl` (relative stereo) [A-P-7, N-((1r,4r)-4-(3-chloro-4-cyanophenoxy)cyclohexy 1)-6-(4-(7-(2,6-dioxopiperidin-3-yl)-6-oxo-7,8-dihydro-2H,6H-dipyridyl[2,3-e]isoindole-3,1'-cyclohexane-4',4'"-piperidin]-1"-yl)pyridazine-3-carboxamide], the “Degradation rate of AR protein” value (0.5 nM) was found to be 79% and the “Degradation rate of AR protein” value (5 nM) is on record as 89%.

With `COc1cc(O[C@H]2C(C)(C)[C@H](NC(=O)c3ccc(N4CCC(C)(CN5CCC6(CCc7cc(C(=O)N[C@H]8CCC(=O)NC8=O)c(F)cc7O6)CC5)CC4)nc3)C2(C)C)ccc1C#N` [A-P-49, 1'-((1-(5-(((1R,3R)-3-(4-cyano-3-methoxyphenoxy)-2,2,4,4-tetramethylcyclobutyl)carbamoyl)pyridin-2-yl)-4-methylpiperidin-4-yl)methyl)-N-((S)-2,6-dioxopiperidin-3-yl)-7-fluorospiro[chroman-2,4'-piperidin]-6-carboxamide], the “Degradation rate of AR protein” value (0.5 nM) was -15% and the “Degradation rate of AR protein” value (5 nM) amounted to 45%.

`COc1cc(O[C@H]2C(C)(C)[C@H](NC(=O)c3ccc(N4CCC(CN5CCC6(CCc7cc(C(=O)N[C@H]8CCC(=O)NC8=O)c(F)cc7O6)CC5)CC4)nc3)C2(C)C)ccc1C#N` [A-P-33, 1'-((1-(5-(((1R,3R)-3-(4-cyano-3-methoxyphenoxy)-2,2,4,4-tetramethylcyclobutyl)carbamoyl)pyridin-2-yl)piperidin-4-yl)methyl)-N-((S)-2,6-dioxopiperidin-3-yl)-7-fluorospiro[chroman-2,4'-piperidin]-6-carboxamide]: the “Degradation rate of AR protein” value by setting is: (0.5 nM) 56%; (5 nM) 84%.

Regarding `Cn1c(=O)n(C2CCC(=O)NC2=O)c2ccc3c(c21)OCC31CCN(CC2CCN(c3ccc(C(=O)N[C@H]4CC[C@H](Oc5ccc(C#N)c(Cl)c5)CC4)nn3)CC2)CC1` (stereo partly drawn) [A-P-24], the AR protein degradation rate at fixed concentration (%) at 0.0005 µM (0.5 nM) is 85%. In addition, the AR protein degradation rate at fixed concentration (%) at 0.005 µM (5 nM) came out at 85%.

Consider `Cn1c(=O)n(C2CCC(=O)NC2=O)c2cc3c(cc21)C1(CCN(C2CC4(CCN(c5ccc(C(=O)N[C@H]6CC[C@H](Oc7ccc(C#N)c(Cl)c7)CC6)nn5)CC4)C2)CC1)CO3` (relative stereo) [A-P-12, N-((1r,4r)-4-(3-chloro-4-cyanophenoxy)cyclohexy 1)-6-(2-(3-(2,6-dioxopiperidin-3-yl)-1-methyl-2-oxo-2,3-dihydro-1H,6H-spiro[benzofuro[5,6-d]imidazole-7,4'-piperidin]-1'-yl)-7-azaspiro[3.5]nonan-7-yl)pyridazine-3-carboxamide], for which the “Degradation rate of AR protein” value is, setting by setting: (0.5 nM) 88%; (5 nM) 88%.

For `COc1cc(O[C@H]2C(C)(C)[C@H](NC(=O)c3ccc(N4CCC(F)(CN5CCC6(CC5)COc5c6ccc(C(=O)N[C@H]6CCC(=O)NC6=O)c5F)CC4)cc3)C2(C)C)ccc1C#N` [A-P-84], the “Degradation rate of AR protein” value (0.5 nM) is reported as -14% and the “Degradation rate of AR protein” value (5 nM) was -17%.

As to `COc1cc(O[C@H]2C(C)(C)[C@H](NC(=O)c3ccc(N4CCC(CN5CCC6(CC5)COc5c6ccc(C(=O)N[C@H]6CCC(=O)NC6=O)c5F)CC4)cc3)C2(C)C)ccc1C#N` [A-P-83], the “Degradation rate of AR protein” value came out at 36% (0.5 nM) and 66% (5 nM).

As to `COc1cc(O[C@H]2C(C)(C)[C@H](NC(=O)c3ccc(N4CCC(CN5CCC6(CCc7cc(F)c(C(=O)N[C@H]8CCC(=O)NC8=O)cc7O6)CC5)CC4)cc3)C2(C)C)ccc1C#N` [A-P-39], the “Degradation rate of AR protein” value runs as follows: (0.5 nM) -6%; (5 nM) 9%.

In the case of `COc1cc(O[C@H]2C(C)(C)[C@H](NC(=O)c3ccc(N4CCC5(CC4)CC(N4CCC6(CCc7cc(C(=O)N[C@H]8CCC(=O)NC8=O)c(F)cc7O6)CC4)C5)cc3)C2(C)C)ccc1C#N` [A-P-37, 1'-(7-(4-(((1R,3R)-3-(4-cyano-3-methoxyphenoxy)-2,2,4,4-tetramethylcyclobutyl)carbamoyl)phenyl)-7-azaspiro[3.5]nonan-2-yl)-N-((S)-2,6-dioxopiperidin-3-yl)-7-fluorospiro[chroman-2,4'-piperidin]-6-carboxamide], the “Degradation rate of AR protein” value (0.5 nM) is reported as 25% and the “Degradation rate of AR protein” value (5 nM) was 49%.

As to `COc1cc(O[C@H]2C(C)(C)[C@H](NC(=O)c3ccc(N4CCC(N5CCC6(CC5)COc5c6ccc6c5n(C)c(=O)n6C5CCC(=O)NC5=O)CC4)cc3)C2(C)C)ccc1C#N` (stereo partly drawn) [A-P-29], the AR protein degradation rate at fixed concentration (%) at 0.0005 µM (0.5 nM) was 70%. Besides, the AR protein degradation rate at fixed concentration (%) at 0.005 µM (5 nM) stood at 68%.

Regarding `COc1cc(O[C@H]2C(C)(C)[C@H](NC(=O)c3ccc(N4CCC(C)(CN5CCC6(CCc7cc(F)c(C(=O)N[C@H]8CCC(=O)NC8=O)cc7O6)CC5)CC4)cc3)C2(C)C)ccc1C#N` [A-P-38, 1-(1-(4-((1R,3R)-3-((4-cyano-3-methoxyphenoxy)-2,2,4,4-tetramethylcyclobutyl)carbamoyl)phenyl)-4-methylpiperidin-4-methyl)-N-((S)-2,6-dioxopiperidin-3-yl)-6-fluorospiro[chroman-2,4'-piperidin]-7-carboxamide], the “Degradation rate of AR protein” value is on record as -21% (0.5 nM) and -5% (5 nM).

`C[C@H]1CC2(CCN(c3ccc(N4CCC(CN5CCC6(CCc7cc(C(=O)N[C@H]8CCC(=O)NC8=O)c(F)cc7O6)CC5)CC4)cc3)CC2)CN1c1ccc(C#N)c(Cl)c1` [A-P-42, 1'-((1-(4-((S)-2-(3-chloro-4-cyanophenyl)-3-methyl-2,8-diazaspiro[4.5]decan-8-yl)phenyl)piperidin-4-yl)methyl)-N-((S)-2,6-dioxopiperidin-3-yl)-7-fluorospiro[chroman-2,4'-piperidin]-6-carboxamide]: the AR protein degradation rate at fixed concentration (%) at 0.0005 µM (0.5 nM) is -40%. For the same molecule, under “5 nM”, the AR protein degradation rate at fixed concentration (%) at 0.005 µM is -4%.

With `COc1cc(O[C@H]2C(C)(C)[C@H](NC(=O)c3ccc(N4CCC(F)(CN5CCC6(CCc7cc(C(=O)N[C@H]8CCC(=O)NC8=O)c(F)cc7O6)CC5)CC4)cc3)C2(C)C)ccc1C#N` [A-P-52, 1'-((1-(4-(((1r,3r)-3-(4-cyano-3-methoxyphenoxy)-2,2,4,4-tetramethylcyclobutyl)carbamoyl)phenyl)-4-fluoropiperidin-4-yl)methyl)-N-((S)-2,6-dioxopiperidin-3-yl)-7-fluorospiro[chroman-2,4'-piperidin]-6-carboxamide], the “Degradation rate of AR protein” value (0.5 nM) is listed as -1% and the “Degradation rate of AR protein” value (5 nM) is given as 14%.

Turning to `COc1cc(O[C@H]2C(C)(C)[C@H](NC(=O)c3ccc(N4CCC(CN5CC6(CCC7(CC6)COc6c7ccc7c6CN(C6CCC(=O)NC6=O)C7=O)C5)CC4)cc3)C2(C)C)ccc1C#N` (relative stereo) [A-P-3], the “Degradation rate of AR protein” value was found to be 53% (0.5 nM) and 87% (5 nM).

As to `COc1cc(O[C@H]2C(C)(C)[C@H](NC(=O)c3ccc(N4CCC(F)(CN5CCC6(CCc7cc(F)c(C(=O)N[C@H]8CCC(=O)NC8=O)cc7O6)CC5)CC4)cc3)C2(C)C)ccc1C#N` [A-P-41], the “Degradation rate of AR protein” value was 13% (0.5 nM) and 18% (5 nM).

In the case of `COc1cc(O[C@H]2C(C)(C)[C@H](NC(=O)c3ccc(N4CCC(C)(CN5CCC6(CCc7cc(C(=O)N[C@H]8CCC(=O)NC8=O)c(F)cc7O6)CC5)CC4)nn3)C2(C)C)ccc1C#N` [A-P-48, 1'-((1-(6-(((1R,3R)-3-(4-cyano-3-methoxyphenoxy)-2,2,4,4-tetramethylcyclobutyl)carbamoyl)pyridazin-3-yl)-4-methylpiperidin-4-yl)methyl)-N-((S)-2,6-dioxopiperidin-3-yl)-7-fluorospiro[chroman-2,4'-piperidin]-6-carboxamide], the “Degradation rate of AR protein” value was -23% (0.5 nM) and -1% (5 nM).
